# Measurements taken from ChEMBL document CHEMBL1134325, “Diaminoindanes as microsomal triglyceride transfer protein inhibitors” (J Med Chem, 2001).
# Target: T1, Microsomal triglyceride transfer protein large subunit (Homo sapiens, UniProt P55157)
# T1 sequence (P55157 whole entry): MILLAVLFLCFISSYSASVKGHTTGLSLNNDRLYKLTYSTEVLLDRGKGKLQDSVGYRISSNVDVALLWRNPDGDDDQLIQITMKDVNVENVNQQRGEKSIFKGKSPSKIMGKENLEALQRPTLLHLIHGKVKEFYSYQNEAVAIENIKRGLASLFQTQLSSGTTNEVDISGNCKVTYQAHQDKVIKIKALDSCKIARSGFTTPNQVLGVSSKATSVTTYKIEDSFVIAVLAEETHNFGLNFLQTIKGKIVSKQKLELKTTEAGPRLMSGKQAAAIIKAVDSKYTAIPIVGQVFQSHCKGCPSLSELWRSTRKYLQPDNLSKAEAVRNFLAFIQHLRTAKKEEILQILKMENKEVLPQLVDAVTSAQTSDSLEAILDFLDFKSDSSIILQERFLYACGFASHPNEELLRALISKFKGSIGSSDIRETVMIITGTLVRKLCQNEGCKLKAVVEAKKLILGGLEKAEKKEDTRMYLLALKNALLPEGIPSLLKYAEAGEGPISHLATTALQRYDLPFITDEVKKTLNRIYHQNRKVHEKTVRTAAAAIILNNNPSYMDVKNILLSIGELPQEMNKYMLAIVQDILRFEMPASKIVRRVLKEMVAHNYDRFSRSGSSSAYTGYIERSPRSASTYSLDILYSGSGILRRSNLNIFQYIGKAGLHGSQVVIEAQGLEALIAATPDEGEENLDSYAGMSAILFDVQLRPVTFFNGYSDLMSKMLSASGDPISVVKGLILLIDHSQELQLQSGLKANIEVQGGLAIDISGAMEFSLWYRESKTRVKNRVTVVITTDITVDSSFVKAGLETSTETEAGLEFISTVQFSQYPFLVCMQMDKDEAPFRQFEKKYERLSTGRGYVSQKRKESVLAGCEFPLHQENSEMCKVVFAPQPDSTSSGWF
# Assay: In vitro inhibitory activity against MTP using MTP transfer assay
row,SMILES,IC50 [nM]
1,COc1cccc(C(=O)Nc2ccc3c(c2)CC(NS(=O)(=O)c2ccccc2)C3)c1-c1ccc(Cl)cc1 (stereo unspecified),110
2,Cc1cccc(C(=O)Nc2ccc3c(c2)CC(NS(=O)(=O)c2ccccc2)C3)c1-c1ccc(F)cc1 (stereo unspecified),240
3,Cc1cccc(C(=O)Nc2ccc3c(c2)CC(NS(C)(=O)=O)C3)c1-c1ccc(F)cc1 (stereo unspecified),170
4,O=C(Nc1ccc2c(c1)CC(NS(=O)(=O)c1ccccc1)C2)c1ccccc1-c1ccccc1 (stereo unspecified),710
5,O=C(Nc1ccc2c(c1)CC(NCc1ccccc1)C2)c1ccccc1-c1ccc(C(F)(F)F)cc1 (stereo unspecified),4800
6,Cc1cccc(C(=O)Nc2ccc3c(c2)CCC(NS(=O)(=O)c2cccs2)CC3)c1-c1ccc(C(F)(F)F)cc1 (stereo unspecified),140
7,Cc1cccc(C(=O)Nc2ccc3c(c2)CC(CNS(C)(=O)=O)C3)c1-c1ccc(Cl)cc1 (stereo unspecified),500
8,Cc1cccc(C(=O)Nc2ccc3c(c2)CC(NS(=O)(=O)c2ccccc2)C3)c1-c1ccc(Cl)cc1 (stereo unspecified),100
9,COc1cccc(C(=O)Nc2ccc3c(c2)CC(NS(C)(=O)=O)C3)c1-c1ccc(Cl)cc1 (stereo unspecified),70
10,Cc1cccc(C(=O)Nc2ccc3c(c2)CC(NS(=O)(=O)c2cccs2)C3)c1-c1ccc(Cl)cc1 (stereo unspecified),120

# Second part, the compound after the results:
row,IC50 [nM],SMILES
1,410,COC(=O)N[C@H]1Cc2ccc(NC(=O)c3cc(C(F)(F)F)ccc3-c3ccc(C(F)(F)F)cc3)cc2C1
2,50,COC(=O)N[C@H]1Cc2ccc(NC(=O)c3cccc(C(F)(F)F)c3-c3ccc(C(F)(F)F)cc3)cc2C1
3,80,CC(=O)NC1Cc2ccc(NC(=O)c3ccccc3-c3ccc(C(F)(F)F)cc3)cc2C1 (stereo unspecified)
4,40,COC(=O)NCC1Cc2ccc(NC(=O)c3cc(C)cc(C)c3-c3ccc(C(F)(F)F)cc3)cc2C1 (stereo unspecified)
5,100,COC(=O)NCC1Cc2ccc(NC(=O)c3cccc(C)c3-c3ccc(Cl)cc3)cc2C1 (stereo unspecified)
6,110,COC(=O)N[C@@H]1Cc2ccc(NC(=O)c3ccccc3-c3ccc(C(F)(F)F)cc3)cc2C1
7,14,Cc1cccc(C(=O)Nc2ccc3c(c2)CC(CNS(=O)(=O)c2cccs2)C3)c1-c1ccc(C(F)(F)F)cc1 (stereo unspecified)
8,120,CS(=O)(=O)NC1Cc2ccc(NC(=O)c3ccccc3-c3ccc(C(F)(F)F)cc3)cc2C1 (stereo unspecified)
9,80,COC(=O)NC1CCc2ccc(NC(=O)c3cccc(C)c3-c3ccc(Cl)cc3)cc2CC1 (stereo unspecified)
10,70,COC(=O)N[C@H]1Cc2ccc(NC(=O)c3cc(C)cc(C)c3-c3ccc(C(F)(F)F)cc3)cc2C1
11,> 1000,O=C(NC1Cc2ccc(NC(=O)c3ccccc3-c3ccc(C(F)(F)F)cc3)cc2C1)c1ccccc1 (stereo unspecified)
